Results as given in PMC11249646, “Small-Molecule Disruptors of the Interaction between Calcium- and Integrin-Binding Protein 1 and Integrin αIIbβ3 as Novel Antiplatelet Agents” (ACS Pharmacology & Translational Science, 2024).
Like-named read-outs stand apart in the source and are kept apart here.

Target: T1, CIB1 and αIIb interaction (CIB1-GST : F-αIIb peptide) (Homo sapiens, UniProt Q99828)
T1 construct: made in house; host or cells: BL-21 plus RIL cells (E. coli)
T1 sequence (Q99828 1-191): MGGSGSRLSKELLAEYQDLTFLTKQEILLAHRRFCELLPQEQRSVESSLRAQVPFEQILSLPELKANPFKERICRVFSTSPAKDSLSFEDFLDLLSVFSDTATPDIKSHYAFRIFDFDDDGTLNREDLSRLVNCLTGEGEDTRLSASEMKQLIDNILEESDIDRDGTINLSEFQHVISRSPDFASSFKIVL
Assay: FP assay, 1536-well qHTS format (primary and confirmatory screen)
Type: binding
Conditions: for Efficacy (%): negative = inhibition; for IC50: read-out: IC50; for Curve Class: negative sign = inhibitory curve

[1] = qHTS primary screen hits, Table S2
[2] = qHTS primary screen of LOPAC/NPACT libraries
[3] = qHTS primary screen hits, Table S2, several classes where COUNT > 1

Structure (SMILES) | Efficacy (%) [1] | IC50 [1] | Curve Class [1] | other results
N#C/C(=C\c1ccc(O)c(O)c1)C(=O)NCCc1ccccc1 [NCGC00016029-05] |  |  |  | Efficacy (%) [2]: -15%; Curve Class [2]: -1.2; IC50 [2]: 7.9 µM
Cc1ccc(S(=O)(=O)Nc2ccc(OC(F)(F)F)cc2C(=O)Nc2nc(-c3ccccc3)cs2)cc1.O=C(O)C(F)(F)F [NCGC00262991-01] | -27% | 44.7 µM | -2.4 | 
Cc1cc(-c2cc(O)ccc2Cl)cc2nnc(Nc3ccc(OCCN4CCCC4)cc3)nc12.Cl [NCGC00378690-01] |  |  |  | Efficacy (%) [2]: -25%; Curve Class [2]: -2.4; IC50 [2]: 56.2 µM
N#Cc1ccc(S(=O)(=O)Nc2cnccc2C(=O)Nc2nc(-c3ccccc3)cs2)cc1.O=C(O)C(F)(F)F [NCGC00344937-01] | -38% | 79.4 µM | -2.4 | 
Cc1nnc(SCC2=C(C(=O)O)N3C(=O)[C@@H](NC(=O)Cn4cnnn4)[C@H]3SC2)s1 [NCGC00022653-06] |  |  |  | Efficacy (%) [2]: -21%
O=C(Nc1nc(-c2ccccc2)cs1)c1ccncc1NS(=O)(=O)c1ccc(F)cc1Cl.O=C(O)C(F)(F)F [NCGC00345105-01] | -42% | 79.4 µM |  | Curve Class [3]: -2.2
Cc1c2c(=O)n(-c3ccccc3)[nH]c2cc(=O)n1CCc1ccccc1.O=C(O)C(F)(F)F [NCGC00248471-01] | -28% | 50.1 µM |  | Curve Class [3]: -2.4
CC(=O)NCc1ccc(-c2csc(Nc3cccc(C)c3)n2)o1.O=C(O)C(F)(F)F [NCGC00304445-03] | -38% | 44.7 µM |  | Curve Class [3]: -2.4
Cc1c2c(=O)n(-c3ccccc3)[nH]c2cc(=O)n1Cc1ccco1.O=C(O)C(F)(F)F [NCGC00248469-01] | -43% | 56.2 µM |  | Curve Class [3]: -2.4
CN1C[C@H](C(=O)N[C@]2(C)O[C@@]3(O)[C@@H]4CCCN4C(=O)[C@H](Cc4ccccc4)N3C2=O)C[C@@H]2c3cccc4[nH]cc(c34)C[C@H]21.CS(=O)(=O)O [NCGC00261042-01] |  |  |  | Efficacy (%) [2]: -32%; Curve Class [2]: -2.4; IC50 [2]: 56.2 µM
Cc1ccnc(N(C)C(=S)N2CCN(c3cccc(C(F)(F)F)c3)CC2)c1.O=C(O)C(F)(F)F [NCGC00241084-01] | -24% | 50.1 µM | -2.4 | 
C=CCn1c(=O)c2c(nc(-c3ccc(S(=O)(=O)O)cc3)n2C)n(C)c1=O [NCGC00015008-05] |  |  |  | Efficacy (%) [2]: -20%; Curve Class [2]: -2.2; IC50 [2]: 25.1 µM
C=CC(=O)Nc1cccc(Sc2nc(Nc3ccc(N4CCN(C)CC4)cc3)ncc2Cl)c1 [NCGC00346497-02] |  |  |  | Efficacy (%) [2]: -29%; Curve Class [2]: -2.4; IC50 [2]: 20 µM
CC(C)NC[C@@H](O)c1ccc(O)c(O)c1 [NCGC00179436-02] |  |  |  | Efficacy (%) [2]: -24%; Curve Class [2]: -2.2; IC50 [2]: 50.1 µM
CCCC1(CCC)CCC2(CCN(CCCN(CC)CC)C2)CC1.Cl [NCGC00379163-01] |  |  |  | Efficacy (%) [2]: -32%; Curve Class [2]: -2.4; IC50 [2]: 79.4 µM
O=c1onc2cnc3ccccc3n12 [NCGC00015770-05] |  |  |  | Efficacy (%) [2]: -21%; Curve Class [2]: -2.4; IC50 [2]: 56.2 µM
Cc1ccc(S(=O)(=O)Nc2cnccc2C(=O)Nc2nc(C(=O)O)cs2)cc1.O=C(O)C(F)(F)F [NCGC00343903-01] | -36% | 50.1 µM |  | Curve Class [3]: -2.4

Structure (SMILES) | Efficacy (%) [1] | IC50 [1] | Curve Class [1] | other results
O=C(O)C(F)(F)F.O=C1CC(c2ccccc2F)c2sc(N3CCOCC3)nc2N1 (centres unmarked) [NCGC00488254-02] | -42% | 56.2 µM |  | Curve Class [3]: -2.4
Cc1ccc(C)n1-c1cccc(C(=O)O)c1.O=C(O)C(F)(F)F [NCGC00060597-04] |  |  |  | Efficacy (%) (qHTS FP screen hits, Table S2): -32%; IC50 (qHTS FP screen hits, Table S2): 32.3 µM
CCCc1n[nH]c2c1C(c1cc(Cl)cc(Cl)c1O)C(C#N)=C(N)O2 (centres unmarked) [NCGC00402340-02] |  |  |  | Efficacy (%) [2]: -29%; Curve Class [2]: -2.4; IC50 [2]: 44.7 µM
N#Cc1cc2nc([O-])c([O-])nc2cc1[N+](=O)[O-].[Na+].[Na+] [NCGC00015198-04] | -48% | 35.5 µM | -2.2 | 
COc1cccc2nc3c(C(=O)NCCN(C)C)cccc3cc12.O=C(O)C(F)(F)F [NCGC00371843-01] | -37% | 50.1 µM |  | Curve Class [3]: -2.4
COC[C@H]1OC(=O)c2coc3c2[C@@]1(C)C1=C(C3=O)C2CCC(=O)[C@@]2(C)C[C@H]1OC(C)=O (some centres unmarked) [NCGC00016094-12] |  |  |  | Efficacy (%) (qHTS FP screen hits, Table S2): -33%; Curve Class (qHTS FP screen hits, Table S2, one class per curve where COUNT > 1): -2.2; IC50 (qHTS FP screen hits, Table S2): 29.3 µM
NS(=O)(=O)c1ccc(Cc2c(-c3ccc(F)c(-c4cccs4)c3)nn(-c3nc(C(=O)O)cs3)c2CC2CC2)cc1F.O=C(O)C(F)(F)F [NCGC00390071-01] | -33% | 50.1 µM |  | Curve Class [3]: -2.2
O=C(O)C(F)(F)F.O=C1c2ccccc2NC(c2ccc(-c3ccc(C(F)(F)F)cc3)o2)N1O (centres unmarked) [NCGC00183389-01] | -24% | 56.2 µM | -2.4 | 
O=C(O)CCc1ccc(NCc2cccc3c2CCCN3CCOc2ccccc2)cc1F [NCGC00370998-03] |  |  |  | Efficacy (%) [2]: -32%; Curve Class [2]: -2.4; IC50 [2]: 44.7 µM
CCOc1cc(C(=O)N2CCC(N3CCN(C)CC3)CC2)ccc1Nc1ncc2c(n1)N(C1CCCC1)c1ccccc1C(=O)N2C [NCGC00378965-03] |  |  |  | Efficacy (%) [2]: -25%; Curve Class [2]: -2.4; IC50 [2]: 56.2 µM
C=C1C(=O)O[C@@H]2C(OC(=O)/C(C)=C\C)/C(C)=C\C(=O)/C=C(\C)C[C@H](O)[C@@H]12 (some centres unmarked) [NCGC00381208-01] |  |  |  | Efficacy (%) [2]: -28%; Curve Class [2]: -1.4; IC50 [2]: 1.6 µM
O=c1[nH]c2cc(C(F)(F)F)ccc2n1-c1cc(C(F)(F)F)ccc1O [NCGC00015720-07] |  |  |  | Efficacy (%) [2]: -30%; Curve Class [2]: -2.4; IC50 [2]: 44.7 µM
CCN(CC)C(=O)[C@@H]1C=C2c3cccc4[nH]cc(c34)C[C@H]2N(C)C1 [NCGC00168265-02] | -141% | 63.1 µM | -1.1 | 
Cc1cnc(-c2ccccc2C(C)C)nc1NC(C)c1ccc(-c2cccnc2)cc1.O=C(O)C(F)(F)F (centres unmarked) [NCGC00253889-01] | -56% | 56.2 µM | -2.4 | 
NC(=O)N/N=C/c1ccc([N+](=O)[O-])o1 [NCGC00090686-07] | -26% | 112 µM | -2.4 | 
CC1CCCC[C@H]2C(=O)C=C[C@H](O)[C@@H]2CC(=O)O1 (some centres unmarked) [NCGC00169882-02] | -82% | 28.2 µM | -1.2 | 

Now from value to compound, other results behind:

Efficacy (%) [1] | IC50 [1] | Curve Class [1] | Structure (SMILES) | other results
-42% | 7.7 µM |  | COc1cccc2c1C(=O)c1c(O)c3c(c(O)c1C2=O)C[C@@](O)(C(=O)CO)C[C@@H]3O[C@H]1C[C@H](N)[C@H](O[C@@H]2CCCCO2)[C@H](C)O1 [NCGC00167982-02] | 
-44% | 89.1 µM | -3 | O=C(CS)Nc1ccccc1 [NCGC00160366-02] | 
-44% | 39.8 µM | -2.2 | COc1ccc2c(c1)c(CC(=O)O)c(C)n2Cc1ccc(Cl)cc1 [NCGC00015217-05] | 
-32% | 56.2 µM |  | Oc1c(I)cc(Cl)c2cccnc12 [NCGC00016391-13] | Curve Class [3]: -2.4
-24% | 89.1 µM |  | C[C@](N)(Cc1ccc(O)c(O)c1)C(=O)O [NCGC00024667-14] | Curve Class [3]: -2.4
-50% | 50.1 µM |  | Cl.Cl.NC(CO)C(=O)NNCc1ccc(O)c(O)c1O (centres unmarked) [NCGC00015163-09] | Curve Class [3]: -2.2
-171% | 89.1 µM | -3 | CO/N=C(\C(=O)N[C@@H]1C(=O)N2C(C(=O)O)=C(Cn3nnc(C)n3)CS[C@H]12)c1csc(N)n1 [NCGC00183016-01] | 
-32% | 31.6 µM | -2.2 | O=C1c2ccccc2C(=O)c2c(NCCc3ccc(O)cc3)ccc(NCCc3ccc(O)cc3)c21 [NCGC00186017-01] | 
-41% | 39.8 µM |  | Cl.Cl.O=C(O)c1cn(-c2ccc(F)cc2)c2cc(N3CCNCC3)c(F)cc2c1=O [NCGC00177995-02] | Curve Class [3]: -3
-139% | 39.8 µM | -3 | COc1ccc(NS(=O)(=O)c2ccc(N)cc2)nn1 [NCGC00016324-09] | 
-21% | 44.7 µM | -2.4 | O=C(O)c1ccccn1 [NCGC00165993-02] | 
-27% | 56.2 µM | -2.4 | COc1ccc(CNC(=O)c2ccc3c(c2)NC(=O)c2ccccc2S3)cc1 [NCGC00241665-01] | 
-41% | 44.7 µM | -2.2 | CCCCC1(C2CCCC2)Cc2cc(OCC(=O)O)c(Cl)c(Cl)c2C1=O (stereo in doubt) [NCGC00093872-03] | 
-35% | 50.1 µM | -2.4 | CN(C)c1cccc(N2CCN(c3nn4c(=O)c5ccccc5nc4s3)CC2)c1.Cl [NCGC00187811-01] | 
-50% | 22.4 µM | -2.2 | COc1ccc(Br)cc1S(=O)(=O)NC(=O)/C=C/c1ccccc1Cc1ccc2ccccc2c1 [NCGC00260960-01] | 
